The subject of one data set is Cobb male broilers. Description: Poultry trial with Cobb male broilers. Format: in vivo. The conditions noted are these: Cobb male broilers from 1 day old; 80 ppm supplemental Zn; Zn-EDA group = 40 ppm Zn from ZnSO4 + 40 ppm Zn from Zn-EDA. The text has this: Animals were Cobb male broilers. The experiment was started with 1 day old animals. ZnSO4 was used as a comparative example using 80 ppm zinc from ZnSO4. Zn-EDA replaced 40 ppm of the zinc so there was 40 ppm Zn from ZnSO4 and 40 ppm Zn from Zn-EDA and compared to 80 ppm Zn from ZnSO4. Actual broiler integrator diets were used. They contain 500 ftu of phytase and an NSP enzyme (nonstarch polysaccride degrading enzyme). The plane of nutrition is targeted to be at AgriStat's 75th percentile. […] There were 12 replicates per treatment and 21 birds per replicate.

For data set [1] the following is noted: sheep, bolus; versus FeSO4; most notably at 30 hours; FIG. 3. As for the experimental part:
In the following examples sheep were given a bolus injection like in Example 19 and then blood uptake was measured at various intervals.
The Fe-EDA (Example 9) and the Fe-EDA (Example 16) were tested for iron uptake in the blood in comparison with the bolus injection of FeSO4.

Data set [2] is described as follows: Sheep bolus test, manganese blood uptake. Format: in vivo. The conditions noted are these: 30 hour. From the text:
Tests like in Example 19 and 21 were run with MnSO4 in comparison with Mn-EDA of Example 10. At all points Manganese blood uptake of the sheep was at lower levels than other tested ligands. This may be a characteristic of Mn itself.

As to `O=S(=O)([O-])[O-].[Zn+2]` [ZnSulfate, ZnSO4], in the data set on Cobb male broilers, the “Body Wt.” value turned out to be 2.212 kg, the “Feed Conversion” value turned out to be 1.531 and the Mortality came to 4.71%.

Regarding `NCCN.[Cl][Fe][Cl]` [Example 16, 1,2 Diaminoethane—iron(II) chloride], in data set [1], the “iron uptake in the blood” value is on record as “better at every interval than inorganic iron sulfate”.

Regarding `Cl.Cl.NCCN.[Cl][Fe][Cl]` [Example 9, 1,2 Diaminoethane dihydrochloride—iron(II) chloride], the “iron uptake in the blood” value in data set [1] is recorded as “better at every interval than inorganic iron sulfate”.

In the case of “1,2 Diaminoethane dihydrochloride—manganese(II) chloride [Example 10]”, the Manganese blood uptake in data set [2] is 33.

The molecule `O=S(=O)([O-])[O-].[Mn+2]` [MnSO4] came in with a Manganese blood uptake in data set [2] of 24.

(Values after patent US8968807B1, “Use of ethylene diamine metal complexes to deliver highly absorbable metals for animal nutrition” (Zinpro Corporation, priority 2013, dated 2015).)
